Experimental findings from ChEMBL document CHEMBL6087448, “Eradication of Therapy-Resistant Cancer Stem Cells by Novel Telmisartan Derivatives” (J Med Chem, 2025) are described below.

A short description of the assay: Cytotoxicity against human Docetaxel-resistant DU145 cell assessed as metabolic activity at 12.5 nM measured after 72 hrs by MTT assay relative to control. The format is functional.

Where only a bound is given, the exact number is not on record here.

As to `CC(=O)O[C@@]12CO[C@@H]1C[C@H](O)[C@@]1(C)C(=O)[C@H](O)C3=C(C)[C@@H](OC(=O)[C@H](O)[C@@H](NC(=O)OC(C)(C)C)c4ccccc4)C[C@@](O)([C@@H](OC(=O)c4ccccc4)[C@H]21)C3(C)C` [DOCETAXEL ANHYDROUS], the Activity was more than 80%.
